Measurements as given in a melting point compilation (Tetko et al.; mined from patent text by program, amines drawn as free bases though some values may be those of a salt).

First: CCN(CC)c1ccc(C2(CNC(=O)Nc3c(C(C)C)cccc3C(C)C)CCCC2)cc1
Second: O=C(CCl)NCC1(c2ccc(Cl)c(Cl)c2)CCC1
The melting point of the first is higher: 138 to 140 °C for the first, 104 to 105 °C for the second.

First: O=S(=O)(c1ccc(F)cc1)N1CCCC1c1cccs1 (racemic)
Second: Cc1ccc(S(=O)(=O)N[C@@H]2COC(=O)[C@H]2Cc2ccccc2)cc1
The melting point of the first is lower: 97 °C for the first, 108 to 109 °C for the second.

First: O=c1cc(-c2ccncc2)nc2n1CCN2
Second: COC(=O)c1ccc2c(ccn2C)c1
The melting point of the first is higher: 318 to 320 °C for the first, 108 to 110 °C for the second.

Compared with `Cc1c(NC(=O)c2ccc(-c3ccccc3)cc2F)ccc2cc(CN3CCCC3)cnc12`, `CCCc1c(C(=O)NCc2ccc3cc(O)ccc3c2)cnn1-c1ccccc1` is higher in melting point: 166 to 168 °C for the first, 189 to 190 °C for the second.

First: O=C(O)c1cn(CCCO)c(=O)c2cc(Cl)ccc12
Second: CCOC(=O)c1c(-c2ccccc2)c2cc(Cl)ccc2n(C)c1=O
The melting point of the first is higher: 193 °C for the first, 124 to 125 °C for the second.

First: Nc1cccc(OCc2ccc3ccccc3n2)c1
Second: CC(Oc1ccc2c(c1)C(O)C(Cc1cccc(C(=O)O)c1)CO2)c1ccc2ccccc2n1 (centres undefined)
The melting point of the first is higher: 98 to 99 °C for the first, 70 to 73 °C for the second.

First: CC(C)[C@H](O)[C@@H](CCCCOc1ccc(Cl)cc1Cl)n1nc[nH]c1=S (racemic)
Second: Cc1cccnc1-c1ccc(Cl)cc1Cl
The melting point of the first is higher: 118 °C for the first, 38 to 42.8 °C for the second.

Compared with `C#CCn1c(-c2ccc(OC)cc2)c([N+](=O)[O-])c2ccc(OC)cc2c1=O`, `COc1cccc(C2C=C(C)NC(CN3C(=O)c4ccccc4C3=O)=C2)c1[N+](=O)[O-]` (centres undefined) is lower in melting point: 162 to 164 °C for the first, 98 °C for the second.

First: Cc1cccc(C)c1N1CC(=N)N(c2c(C)cccc2C)C1C(=O)c1ccc(Cl)cc1 (centres undefined)
Second: O=c1[nH]c(=Cc2ccc3ccccc3n2)c(=O)[nH]c1=Cc1ccc(Cl)cc1
The melting point of the first is lower: 155 to 156 °C for the first, 348 to 349 °C for the second.

Compared with `NC(=O)c1ccc2c(c1)C1(COc3cc4c(cc31)OCCO4)C(=O)N2Cc1ccccn1` (centres undefined), `COC(=O)c1cc(C(=O)CNC(C)(C)Cc2ccc3c(c2)OCO3)ccc1OCc1ccccc1` is lower in melting point: 220 to 222 °C for the first, 134 to 141 °C for the second.

First: COc1cc(CCCC2SC(=O)NC2=O)ccc1OCc1csc(-c2ccccc2)n1 (centres undefined)
Second: O=C1NC(=O)C(Cc2ccc(OCc3cn4ccccc4n3)cc2)S1 (centres undefined)
The melting point of the first is lower: 123 to 124 °C for the first, 197 to 202 °C for the second.

First: O=S(c1ccc(-n2cnnn2)cc1)C(F)F (centres undefined)
Second: Cn1nc(-c2ccccc2Cl)nc1-c1ccccc1Cl
The melting point of the first is higher: 109 to 112 °C for the first, 82 to 85 °C for the second.

First: CC(O)(c1nc(-c2ccc(F)cc2)c(-c2ccc(F)cc2)[nH]1)C(F)(F)F (centres undefined)
Second: COC(=O)c1ccc(-c2nc(-c3ccccc3C(F)(F)F)cs2)cc1
The melting point of the first is higher: 191 to 192 °C for the first, 122 to 123 °C for the second.

First: Cc1cccc(NC(=O)NC2N=C(C3CC3)c3cccc(C)c3N(CC(=O)C3CCCCC3)C2=O)c1 (centres undefined)
Second: COC(=O)c1ccc(Cn2ncc3ccc(NC(=O)CC4CCCC4)cc32)c(OC)c1
The melting point of the first is lower: 144 °C for the first, 195 to 198 °C for the second.

Compared with `COc1ccc(NC(=S)N2CCc3cc(S(=O)(=O)N4CC(c5ccccc5)NC4=O)ccc32)cc1` (centres undefined), `Cc1ccc(S(=O)(=O)Nc2nc(C)c(C(=O)NCc3ccccc3)s2)cc1` is higher in melting point: 181 to 183 °C for the first, 242 to 245 °C for the second.

Compared with `O=C(NCC(C(O)c1ccc([N+](=O)[O-])cc1)N1CCC(Cc2ccccc2)CC1)c1ccccc1` (centres undefined), `CC(=NNc1ccc([N+](=O)[O-])cc1)c1ccccc1` is higher in melting point: 143 to 147 °C for the first, 186 to 188 °C for the second.

First: N#Cc1ccc(OCCCc2cc3c(cc2OCc2ccccc2)CC(CCc2ccccc2)O3)cc1 (centres undefined)
Second: CCOC(=O)c1ccc(NCc2nccnc2OCc2ccccc2)cc1
The melting point of the first is higher: 154 to 157 °C for the first, 112 °C for the second.

Compared with `COc1ccc(-c2ocnc2-c2cc(OC)c(OC(F)(F)F)c(OC)c2)cc1N`, `Nc1cc(Oc2ccc3c(C(=O)Nc4ccc(F)c(C(F)(F)F)c4)cccc3c2)ncn1` is higher in melting point: 168 to 170 °C for the first, 224 to 225 °C for the second.

Compared with `COC(=O)C(=O)c1ccccc1F`, `COC(=O)c1ccccc1NC(=O)CN1CCNCC1` is lower in melting point: 98 to 100 °C for the first, 94 to 96 °C for the second.

First: Clc1cccc(C2CCN(CCCCOc3ccc4scnc4c3)CC2)c1Cl
Second: N#CC1c2ccccc2COc2ccc(Cl)cc21 (centres undefined)
The melting point of the first is lower: 79 to 81 °C for the first, 113 to 115 °C for the second.

First: COC(=O)c1ccncc1SCc1ccccc1
Second: O=C1c2cccnc2C(=O)N1Cc1ccccc1
The melting point of the first is lower: 80 °C for the first, 163 to 165 °C for the second.

First: CC1(C)Oc2ccc(C#N)cc2C(Sc2ccccn2)C1O (centres undefined)
Second: CC1(C)CC(=NO)c2cc(-c3ccc(Br)cc3)ccc2O1
The melting point of the first is lower: 101 to 103 °C for the first, 166 to 170 °C for the second.

Compared with `CC(=O)OC1C(c2ccccc2)=C(c2ccc(S(C)(=O)=O)cc2)C1(C)C` (centres undefined), `Cc1cc(-c2ccc3c(C(N)=O)nn(-c4ccc(S(N)(=O)=O)cc4)c3c2)ccc1F` is higher in melting point: 60 to 61 °C for the first, 300 to 302 °C for the second.

First: CC(C)(CNc1ccc(C(=O)CCC(=O)O)cc1)[N+](=O)[O-]
Second: Cc1ccc(C(Cl)=CC(=O)NC(Cc2ccccc2)C(=O)O)cc1 (centres undefined)
The melting point of the first is higher: 198 to 200 °C for the first, 168 to 170 °C for the second.

Compared with `COc1ccc(C=O)c(OC)c1Cl`, `COc1ccc(Cl)cc1C1=NCCO1` is lower in melting point: 107 to 108 °C for the first, 100 to 101 °C for the second.

Compared with `CC(C)(C)C(=O)Nc1ccncc1-c1noc2ccccc12`, `CCCN(CCC)C(=O)CNc1ccnc(-c2ccccc2)n1` is lower in melting point: 137 to 138 °C for the first, 74 to 75 °C for the second.

First: Cc1c(N2C(=O)C[C@](C)(O)[C@@H]2C)ccc(C#N)c1F
Second: CC1(C)OC(=O)c2ccc(C(c3c(F)cc([N+](=O)[O-])cc3F)n3cncn3)cc21 (centres undefined)
The melting point of the first is lower: 138 to 141 °C for the first, 163 to 164 °C for the second.

First: COc1cccc2c1CN(c1c(F)cc3c(=O)c(C(=O)O)cn(-c4ccc(F)cc4)c3c1F)C2
Second: CC1CN(c2c(F)cc3c(=O)c(C(=O)O)cn(C4CC4)c3c2F)CC1CN (centres undefined)
The melting point of the first is higher: 278 to 284 °C for the first, 249 to 252 °C for the second.

Compared with `Cc1cc(C)n(CC(C)C)c(=O)c1C(=O)O`, `COc1ccc2[nH]c(=O)cc(C)c2c1` is higher in melting point: 93 to 95 °C for the first, 270 to 273 °C for the second.

First: CN(C)c1ccc(C=Cc2cc3cc(O)ccc3o2)cc1
Second: COC(=O)C(=Cc1ccc(OC)c(OC)c1)NC(=O)c1ccccc1
The melting point of the first is higher: 177 to 178 °C for the first, 135 to 137 °C for the second.

Compared with `CC(C)NC(=O)c1cnn(C)c1C(=O)Nc1ccn2nc(-c3ccccc3)nc2c1`, `NC(=O)c1sc2ncnc(-c3cccc(NC(=O)Nc4ccncc4)c3)c2c1N` is lower in melting point: greater than 250 °C for the first, 177 to 179 °C for the second.

Compared with `CCOC(=O)c1cnoc1-c1ccc([N+](=O)[O-])cc1`, `O=[N+]([O-])c1cccc(-n2cnc3c([N+](=O)[O-])cccc32)c1` is higher in melting point: 73 to 76 °C for the first, 159 to 161 °C for the second.

Compared with `Cc1ccc(-c2ncc(N(CCCCOCC(=O)O)C(C)C)nc2-c2ccc(C)cc2)cc1`, `CN(Cc1ccc(F)cc1)C(=O)c1cnc2c3c(ccc2c1)C(=O)C(C(=O)O)C=N3` (centres undefined) is higher in melting point: 155 to 156 °C for the first, 245 to 246 °C for the second.

First: COc1cc(Cl)c(-n2nnc3c(-c4ccccc4C)nc(C)nc32)c(OC)c1
Second: COc1ccc(C(=O)Nc2c(Cl)cncc2Cl)c2c1OCC2CC(=O)OCc1ccccc1 (centres undefined)
The melting point of the first is lower: 173 to 174 °C for the first, 198 to 205 °C for the second.

Compared with `CC(=NO)c1ccc(N)c(S(N)(=O)=O)c1`, `Cn1nc(-c2cccc(C(F)(F)F)c2)c(Cl)c1C(=O)O` is lower in melting point: 230 to 233 °C for the first, 180 to 183 °C for the second.

Compared with `CC(O)(CC(=O)O)CC(=O)O`, `C=CC(=O)OCCNC(=O)CCc1cc(-n2nc3ccccc3n2)c(O)c(C(C)(C)C)c1` is lower in melting point: 108 °C for the first, 80 to 83 °C for the second.

First: COc1cc(C(=O)C#CCOCC=C(C)C)cc(OC)c1OC
Second: COc1cc2c(cc1OC)CCCC(C(=O)O)=C2
The melting point of the first is lower: 32 °C for the first, 158 to 159 °C for the second.

First: CN(C)S(=O)(=O)c1cc(Cl)c(Cl)c(Cl)c1SCSC#N
Second: CCS(=O)(=O)N(C)C1CCCOc2c(C)cc(Cl)cc21 (centres undefined)
The melting point of the first is higher: 155 to 156 °C for the first, 141 to 143 °C for the second.

Compared with `COC(=O)c1cc(C(=O)NN)c2cc(Cc3ccc(F)cc3)cnc2c1O`, `O=C(O)c1cc2cc(Cl)ccc2nc1N[C@@H](Cc1ccc(Cl)cc1)C(=O)O` is higher in melting point: 156 to 157 °C for the first, 163 to 168 °C for the second.

Compared with `O=[N+]([O-])c1ccc(SNc2nccs2)c(C(Cl)(Cl)Cl)c1`, `O=C(Nc1cccnc1)C(Cl)(Cl)Cl` is lower in melting point: 165 °C for the first, 149 to 151 °C for the second.

Compared with `COCC1CN(c2ccc(C3CCC(OCCCCC(N)=O)CC3)cc2)C(=O)O1` (racemic), `COC(=O)NC[C@H]1CN(c2ccc(-c3nc(Cn4cccn4)cs3)c(F)c2)C(=O)O1` is higher in melting point: 72 to 74 °C for the first, 142 to 144 °C for the second.

First: Nc1nc(-c2ccc([N+](=O)[O-])o2)ns1
Second: Cc1nn(C2(F)C=CC([N+](=O)[O-])=CC2)c(=O)n1C(F)F (centres undefined)
The melting point of the first is higher: 168 to 170 °C for the first, 82 to 83 °C for the second.

Compared with `CC(C)OC(=O)Cn1c(=O)n(C)c(=O)n(-c2cc(N=c3sc(=O)n4n3CCCC4)c(F)cc2Cl)c1=O`, `COC(=O)c1cccc(Cn2c(=O)c(=O)n(Cc3cccc(C(=O)O)c3)c3ccc([N+](=O)[O-])cc32)c1` is higher in melting point: 97 to 107 °C for the first, 238 to 240 °C for the second.

Compared with `Cn1cncc1C(c1ccc(Cl)cc1)c1ccc2c(c1)C(c1cccc(Cl)c1)SCCC(=O)N2` (centres undefined), `O=C(Nc1ccc(Cl)nc1)c1cccc(Cl)c1` is higher in melting point: 199 °C for the first, 227 to 229 °C for the second.

First: CC1(c2ccccc2)OC(=O)C(Cl)(Cl)C(C(Cl)(Cl)Cl)N1OC(=O)Nc1ccccc1 (centres undefined)
Second: Cc1cc(C(F)(F)F)nn1CC(=O)N1CCC(c2nc(NC(=O)Nc3ccccc3)cs2)CC1
The melting point of the first is lower: 154 to 157 °C for the first, 193 °C for the second.

Compared with `Cc1nc(C(=O)NC23CC4CC(CC(C4)C2)C3)cn1-c1ccccc1`, `OC(Cc1ccccc1Cl)(Cn1ccnc1S)C1(Cl)CC1` (centres undefined) is lower in melting point: 207 to 210 °C for the first, 124 to 126 °C for the second.

First: COc1c(C)c(OC(=O)c2c(C)c(C)c(OCCCOc3ccc(C(N)=O)cc3)c(C)c2OC)c(C)c(C)c1C(N)=O
Second: CCN(CC)CCOc1ccc2ncn(/C=C/C(=O)OC)c(=O)c2c1
The melting point of the first is higher: 284 to 286 °C for the first, 131 to 133 °C for the second.

`Cc1cnc2c(Br)c(NC3=NCCN3)ccc2n1` and `CC(=O)Nc1cc(C(C)(C)C)c(SC2=C(O)CC(CCc3ccc(O)cc3)(C3CCCCC3)OC2=O)cc1C` (centres undefined) cannot be ordered by melting point: 260 °C for the first, greater than 154 °C for the second.

First: COC(=O)c1ncc[nH]1
Second: CC(=O)Oc1ccc2c(c1)C(=O)CC1C2CCC2(C)C(OC(C)=O)CCC12 (centres undefined)
The melting point of the first is higher: 187 to 188 °C for the first, 171 to 175 °C for the second.

For `CCCCCCCCCCCCc1ccc(N=C(C)c2ccccc2)cc1`, the melting point was 47 °C.
